# Data as given in PMC12030627, “Radioiodinated Bicyclic RGD Peptide Derivatives for Enhanced Tumor Accumulation” (Pharmaceuticals, 2025).
# Like-named read-outs stand apart in the source and are kept apart here. Starred links: 1 amine or outer side, 2 acyl side, 3 side chain; linkers in the order of their positions; H or OH if unused. Positions of bridges follow the written chain, without caps; N, C: chain ends. Non-standard residues stand in square brackets, D forms with d. Residues, ends and D or L forms follow the SMILES beside them. *: point of attachment. TBMB = c1c(C[*:1])cc(C[*:3])cc1C[*:2]; Palmitoyl = CCCCCCCCCCCCCCCC(=O)*; Benzoyl(3-I) = O=C(c1cccc(I)c1)*; 4Abz = Nc1ccc(C(=O)O)cc1
# Experiment: Biodistribution in U-87 MG tumor-bearing mice
# Format: in vivo, BALB/c nu-nu mice
# Conditions: male, BALB/c nu-nu, mouse, iv, 37 kBq, total radioactivity; for tissue uptake at 5 min: 5 min after i.v. administration; for tissue uptake at 5 min / tissue uptake at 0.5 h / tissue uptake at 1 h / tissue uptake at 2 h / tissue uptake at 6 h / tissue uptake at 12 h / tissue uptake at 24 h: U-87 MG-bearing mice, mean ± SD, n = 3; for tissue uptake at 0.5 h: 30 min after i.v. administration; for tissue uptake at 1 h: 1 h after i.v. administration; for tissue uptake at 2 h: 2 h after i.v. administration; for tissue uptake at 6 h: 6 h after i.v. administration; for tissue uptake at 12 h: 12 h after i.v. administration; for tissue uptake at 24 h: 24 h after i.v. administration
# Protocol: Animal experiments were performed in compliance with institutional animal care regulations, with the study protocol approved by the Experimental Animal Committee of Osaka Medical and Pharmaceutical University (Approval Numbers: 21–76, 22–76, and 23–76). Four-week-old male BALB/c nu-nu mice (Japan SLC, Shizuoka, Japan) were housed under a 12 h light/12 h dark cycle with free access to food and water. Tumor-bearing mice were established by suspending U-87 MG cells (2 × 10^6 cells/mouse) in PBS(–) and subcutaneously injecting 100 μL of the suspension into the right hind leg. For co-implantation models, A549 cells (2 × 10^6 cells/mouse) were suspended in PBS(–) and inoculated (100 μL) into the left hind leg of the same mice already inoculated with U-87 MG cells. Mice with tumor size approximately 10 mm in diameter, 4–5 weeks after inoculation, were used for biodistribution studies. Animals in which either tumor was not viable were excluded from the experiment.
# U-87 MG-bearing mice (n = 42, 8–9 weeks old; 22–27 g) were randomly assigned into groups and administered [^125I]bcRGDpal or [^125I]bcRGDiba via intravenous injection (37 kBq in 100 μL of PBS containing 0.1% Tween 80 (PBS-T80)). At 5 min, 30 min, 1 h, 2 h, 6 h, 12 h, or 24 h post-injection, the mice were euthanized (n = 3 per time point). The heart, kidneys, liver, brain, pancreas, spleen, lung, small intestine, large intestine, muscle, skin, stomach, bone, and tumors were excised. Each organ’s weight and radioactivity were measured by a NaI well-type scintillation counter, and the % ID/g was calculated. To investigate the correlation between integrin expression and radioactivity accumulation, biodistribution at 2 h after administration of [^125I]bcRGDpal or [^125I]bcRGDiba was assessed in A549 and U-87 MG co-implantation mice (n = 5) using the same procedure. Additionally, co-implantation mice were injected with [^125I]bcRGDdimer (37 kBq/100 μL PBS-T80) and euthanized at 30 min, 2 h, and 4 h post-injection (n = 4 per time point), and % ID/g values were calculated as described above. The minimum sample size needed for the biodistribution study in U-87 MG-bearing mice was calculated using G Power software version 3.1.9.7. The calculation was based on a two-tailed test, with an effect size of 3.9, a significance level (α) of 0.05, and a statistical power (1 − β) of 0.8. […] The minimum required sample size for the biodistribution study in A549 and U-87 MG co-implantation mice was also calculated to be four animals per group (effect size = 2.5, α = 0.05, 1 − β = 0.8). To guarantee objective results, the experiment was carried out in a blinded manner. Specifically, drug administration and radioactivity measurements were conducted by different investigators to eliminate potential bias.
# [1] = U-87 MG tumor, read-out: Radioactivity in U-87 MG tumor
# [2] = blood, read-out: Radioactivity in blood
# [3] = bone, read-out: Radioactivity in bone
# [4] = brain, read-out: Radioactivity in brain
# [5] = heart, read-out: Radioactivity in heart
# [6] = kidneys, read-out: Radioactivity in kidneys
# [7] = large intestine, read-out: Radioactivity in large intestine
# [8] = liver, read-out: Radioactivity in liver
smiles,measurement,setting,value
CCCCCCCCCCCCCCCC(=O)N[C@@H](CCCCNC(=O)c1cccc(I)c1)C(=O)N1CCC[C@H]1C(=O)N1CCC[C@H]1C(=O)N1CCC[C@H]1C(=O)N[C@@H](CO)C(=O)NCC(=O)Nc1ccc(C(=O)N[C@@H](CO)C(=O)NCC(=O)N[C@H]2CSCc3cc4cc(c3)CSC[C@@H](NC(=O)[C@H](CCC(N)=O)NC(=O)[C@@H]3CCCN3C(=O)[C@H](Cc3c[nH]cn3)NC2=O)C(=O)N[C@@H](CCCNC(=N)N)C(=O)NCC(=O)N[C@@H](CC(=O)O)C(=O)N[C@@H](C(N)=O)CSC4)cc1 [[^125I]bcRGDpal] (Palmitoyl-K(Benzoyl(3-I))PPPSG[4Abz]SGCHPQ[dC]RGD[dC]-NH2; linker 10-14-18 via TBMB),tissue uptake at 5 min,[1],1.4 ± 0.2 %ID/g
same,tissue uptake at 0.5 h,[1],3.4 ± 0.5 %ID/g
same,tissue uptake at 1 h,[1],4 ± 0.5 %ID/g
same,tissue uptake at 2 h,[1],3.9 ± 0.2 %ID/g
same,tissue uptake at 6 h,[1],2.1 ± 0.4 %ID/g
same,tissue uptake at 12 h,[1],0.9 ± 0.1 %ID/g
same,tissue uptake at 24 h,[1],0.3 ± 0.1 %ID/g
same,tissue to tissue ratio,"U-87 MG tumor/blood, all time points (5 min to 24 h)",< 1
same,tissue uptake at 5 min,[2],15.6 ± 1 %ID/g
same,tissue uptake at 0.5 h,[2],12.2 ± 0.8 %ID/g
same,tissue uptake at 1 h,[2],9.9 ± 0.5 %ID/g
same,tissue uptake at 2 h,[2],7.8 ± 0.4 %ID/g
same,tissue uptake at 6 h,[2],4.5 ± 0.4 %ID/g
same,tissue uptake at 12 h,[2],2 ± 0.3 %ID/g
same,tissue uptake at 24 h,[2],0.5 %ID/g
same,tissue uptake at 5 min,[3],1.4 ± 0.1 %ID/g
same,tissue uptake at 0.5 h,[3],1.7 ± 0.6 %ID/g
same,tissue uptake at 1 h,[3],1.1 ± 0.3 %ID/g
same,tissue uptake at 2 h,[3],1.3 ± 0.4 %ID/g
same,tissue uptake at 6 h,[3],0.7 ± 0.1 %ID/g
same,tissue uptake at 12 h,[3],0.4 %ID/g
same,tissue uptake at 24 h,[3],0.1 ± 0.1 %ID/g
same,tissue uptake at 5 min,[4],0.5 ± 0.1 %ID/g
same,tissue uptake at 0.5 h,[4],0.3 ± 0.1 %ID/g
same,tissue uptake at 1 h,[4],0.3 %ID/g
same,tissue uptake at 2 h,[4],0.2 %ID/g
same,tissue uptake at 6 h,[4],0.1 %ID/g
same,tissue uptake at 12 h,[4],0.1 %ID/g
same,tissue uptake at 5 min,[5],6.6 ± 0.1 %ID/g
same,tissue uptake at 0.5 h,[5],4.7 ± 0.4 %ID/g
same,tissue uptake at 1 h,[5],4.3 ± 0.3 %ID/g
same,tissue uptake at 2 h,[5],3.1 ± 0.2 %ID/g
same,tissue uptake at 6 h,[5],1.7 %ID/g
same,tissue uptake at 12 h,[5],0.8 ± 0.1 %ID/g
same,tissue uptake at 24 h,[5],0.2 %ID/g
same,tissue uptake at 5 min,[6],9 ± 0.2 %ID/g
same,tissue uptake at 0.5 h,[6],8.3 ± 0.9 %ID/g
same,tissue uptake at 1 h,[6],7.7 ± 0.2 %ID/g
same,tissue uptake at 2 h,[6],6.7 ± 0.6 %ID/g
same,tissue uptake at 6 h,[6],4.2 ± 0.6 %ID/g
same,tissue uptake at 12 h,[6],1.7 ± 0.2 %ID/g
same,tissue uptake at 24 h,[6],0.4 %ID/g
same,tissue uptake at 5 min,[7],0.9 ± 0.1 %ID/g
same,tissue uptake at 0.5 h,[7],1.4 ± 0.2 %ID/g
same,tissue uptake at 1 h,[7],1.4 ± 0.1 %ID/g
same,tissue uptake at 2 h,[7],6.9 ± 1.1 %ID/g
same,tissue uptake at 6 h,[7],11.8 ± 2 %ID/g
same,tissue uptake at 12 h,[7],7.5 ± 0.8 %ID/g
same,tissue uptake at 24 h,[7],2.3 ± 1.1 %ID/g
same,tissue uptake at 5 min,[8],17.6 ± 0.9 %ID/g
same,tissue uptake at 0.5 h,[8],19 ± 2.1 %ID/g
